31 molecules from patent US11964953B2, “Substituted aminothiazoles as DGKzeta inhibitors for immune activation” (Bayer Aktiengesellschaft, priority 2020, dated 2024) can be followed below.

Each structure is given as a SMILES string.

The target in this assay is human DGKζ (Homo sapiens (Human), UniProt Q13574). The assay is described as follows: Human DGKζ kinase activity inhibition assay (ADP-Glo). Particulars: in vitro human DGKζ kinase activity inhibition assay; read-out: IC50. The class given is biochemical. Put shortly: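 ADP-Glo luminescence, reflecting ADP produced, served as the readout of activity. Full-length human DGKζ, FLAG-tagged at the C-terminus and insect-cell expressed, was used; lipid substrate mix was sonicated with octyl-β-D-glucopyranoside in 50 mM MOPS pH 7.4.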
Sequence of human DGKζ (Q13574 other isoform, or with tags, fused parts or gaps): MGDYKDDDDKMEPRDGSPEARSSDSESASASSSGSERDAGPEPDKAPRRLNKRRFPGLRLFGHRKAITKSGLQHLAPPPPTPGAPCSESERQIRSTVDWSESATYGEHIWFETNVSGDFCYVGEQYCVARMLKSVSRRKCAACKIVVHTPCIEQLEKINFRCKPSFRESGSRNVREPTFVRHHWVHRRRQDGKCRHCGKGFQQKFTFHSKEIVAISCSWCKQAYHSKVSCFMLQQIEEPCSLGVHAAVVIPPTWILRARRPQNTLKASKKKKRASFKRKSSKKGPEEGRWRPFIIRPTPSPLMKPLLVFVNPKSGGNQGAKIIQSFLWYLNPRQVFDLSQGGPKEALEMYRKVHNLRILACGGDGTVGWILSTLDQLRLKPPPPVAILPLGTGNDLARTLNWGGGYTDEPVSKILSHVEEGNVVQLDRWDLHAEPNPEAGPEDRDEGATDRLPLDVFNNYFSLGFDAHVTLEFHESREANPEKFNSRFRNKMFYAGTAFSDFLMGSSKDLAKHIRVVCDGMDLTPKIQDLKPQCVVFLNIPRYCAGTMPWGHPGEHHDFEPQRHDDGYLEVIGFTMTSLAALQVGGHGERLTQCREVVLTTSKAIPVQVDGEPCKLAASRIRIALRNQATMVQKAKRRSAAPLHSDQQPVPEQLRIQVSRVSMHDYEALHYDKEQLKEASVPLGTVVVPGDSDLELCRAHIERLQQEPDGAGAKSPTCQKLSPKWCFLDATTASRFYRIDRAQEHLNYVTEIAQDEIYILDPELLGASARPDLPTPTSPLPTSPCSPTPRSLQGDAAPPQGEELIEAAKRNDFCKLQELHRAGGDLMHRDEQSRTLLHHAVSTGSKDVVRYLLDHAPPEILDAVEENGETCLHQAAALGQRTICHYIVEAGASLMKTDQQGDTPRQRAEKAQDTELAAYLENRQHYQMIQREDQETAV
Consider `CC(C(N)=O)N(c1ccc(F)cc1)c1nc(N)c(C(=O)c2ccc(N3CCC(C(F)(F)F)CC3)nc2)s1` (racemic) [Example 275, rac-2-(N-[4-amino-5-[6-[4-(trifluoromethyl)-1-piperidyl]pyridine-3-carbonyl]thiazol-2-yl]-4-fluoro-anilino)propanamide], for which the half-maximal inhibitory concentration (IC50) was found to be 29 nM. For `CC(C(N)=O)N(c1ccc(F)c(F)c1)c1nc(N)c(C(=O)c2ccc(C(F)(F)F)nc2)s1` (single isomer, unassigned) [Example 53.1, 2-(N-[4-amino-5-[6-(trifluoromethyl)pyridine-3-carbonyl]thiazol-2-yl]-3,4-difluoro-anilino)propanamide], the half-inhibitory concentration (IC50) came to 20.3 nM. Next, `CC(C(N)=O)N(c1ccc(Cl)c(F)c1)c1nc(N)c(C(=O)c2ccccc2)s1` (racemic) [Example 36, rac-2-(N-(4-amino-5-benzoyl-thiazol-2-yl)-4-chloro-3-fluoro-anilino)propanamide]: 22.2 nM. Next, `CCN(C)C(=O)COc1ccc(C(=O)c2sc(N(c3ccc(F)cc3)C(C)C(N)=O)nc2N)cc1` (racemic) [Example 111, rac-2-(N-[4-amino-5-[4-[2-[ethyl(methyl)amino]-2-oxo-ethoxy]benzoyl]thiazol-2-yl]-4-fluoro-anilino)propanamide]: 334 nM.

As for `CC(C(N)=O)N(c1ccc(OC(F)F)c(Cl)c1)c1nc(N)c(C(=O)c2ccccc2)s1` (racemic) [Example 194, rac-2-[N-(4-amino-5-benzoyl-thiazol-2-yl)-3-chloro-4-(difluoromethoxy)anilino]propanamide], the half-inhibitory concentration (IC50) was found to be 66 nM. In the case of `CC(C(N)=O)N(c1nc(N)c(C(=O)c2ccccc2)s1)c1ccc(OC(F)(F)F)cc1Cl` (racemic) [Example 240, rac-2-[N-(4-amino-5-benzoyl-thiazol-2-yl)-2-chloro-4-(trifluoromethoxy)anilino]propanamide] it was 1330 nM; in that of `CC(C(N)=O)N(c1ccc(F)cc1)c1nc(N)c(C(=O)c2ccc(OCC(=O)NC34CC5CC(CC(C5)C3)C4)cc2)s1` (single isomer, unassigned) [Example 142, 2-(N-[5-[4-[2-(1-adamantylamino)-2-oxo-ethoxy]benzoyl]-4-amino-thiazol-2-yl]-4-fluoro-anilino)propanamide], 14.5 nM. For `CC(C(N)=O)N(c1ccc(F)cc1)c1nc(N)c(C(=O)c2ccc(N3CC4CCC(C4)C3)nc2)s1` (racemic) [Example 280, rac-2-(N-[4-amino-5-[6-(3-azabicyclo[3.2.1]octan-3-yl)pyridine-3-carbonyl]thiazol-2-yl]-4-fluoro-anilino)propanamide], the half-inhibitory concentration (IC50) was 43 nM. `CC(C(N)=O)N(c1ccc(F)c(F)c1)c1nc(N)c(C(=O)c2ccncc2)s1` (racemic) [Example 50, rac-2-(N-[4-amino-5-(pyridine-4-carbonyl)thiazol-2-yl]-3,4-difluoro-anilino)propanamide]: the IC50 came to 378 nM. As to `CC(C(N)=O)N(c1ccc(F)cc1)c1nc(N)c(C(=O)c2cccc(OC(F)F)c2)s1` (racemic) [Example 183, rac-2-(N-[4-amino-5-[3-(difluoromethoxy)benzoyl]thiazol-2-yl]-4-fluoro-anilino)propanamide], the IC50 stood at 222 nM. With `CC(C(N)=O)N(c1ccc(F)cc1)c1nc(N)c(C(=O)c2ccc(OCC(=O)N(C)Cc3ccco3)cc2)s1` (racemic) [Example 135, rac-2-(N-[4-amino-5-[4-[2-[2-furylmethyl(methyl)amino]-2-oxo-ethoxy]benzoyl]thiazol-2-yl]-4-fluoro-anilino)propanamide], the IC50 was determined as 49.5 nM. In the case of `CC(C(N)=O)N(c1ccc(F)cc1)c1nc(N)c(C(=O)c2ccncc2)s1` (racemic) [Example 7, rac-2-(N-[4-amino-5-(pyridine-4-carbonyl)thiazol-2-yl]-4-fluoro-anilino)propanamide] it was 705 nM; in that of `CC(C(N)=O)N(c1ccc(C(F)F)cc1)c1nc(N)c(C(=O)c2ccc(OC(F)F)nc2)s1` (racemic) [Example 247, rac-2-[N-[4-amino-5-[6-(difluoromethoxy)pyridine-3-carbonyl]thiazol-2-yl]-4-(difluoromethyl)anilino]propanamide], 40 nM.

For the molecule `CC(C(N)=O)N(c1ccc(F)cc1)c1nc(N)c(C(=O)c2ccc(C(=O)NC3CCCC3)cc2)s1` (racemic) [Example 267, rac-4-[4-amino-2-(N-(2-amino-1-methyl-2-oxo-ethyl)-4-fluoro-anilino)thiazole-5-carbonyl]-N-cyclopentyi-benzamide], the concentration for half-maximal inhibition (IC50) turned out to be 63 nM. In the case of `CC(C(N)=O)N(c1ccc(Cl)c(F)c1)c1nc(N)c(C(=O)c2ccc(C(=O)NCCOc3ccccc3)cc2)s1` (racemic) [Example 268, rac-4-[4-amino-2-(N-(2-amino-1-methyl-2-oxo-ethyl)-4-chloro-3-fluoro-anilino)thiazole-5-carbonyl]-N-(2-phenoxyethyl)benzamide] it was 3 nM; in that of `COc1ccc(N(c2nc(N)c(C(=O)c3ccccc3)s2)C(C)C(N)=O)c(C)c1` (racemic) [Example 1, rac-2-(N-(4-amino-5-benzoyl-thiazol-2-yl)-4-methoxy-2-methyl-anilino)propanamide], 946 nM. In the case of `CC(C(N)=O)N(c1ccc(OC(F)(F)F)c(Cl)c1)c1nc(N)c(C(=O)c2ccccc2)s1` (racemic) [Example 211, rac-2-[N-(4-amino-5-benzoyl-thiazol-2-yl)-3-chloro-4-(trifluoromethoxy)anilino]propanamide] it was 183 nM; in that of `C[C@H](C(N)=O)N(c1ccc(F)cc1)c1nc(N)c(C(=O)c2ccccc2)s1` [Example 61.2, (R)-2-(N-(4-amino-5-benzoyl-thiazol-2-yl)-4-fluoro-anilino)propanamide], 108 nM. Regarding `CC(C(N)=O)N(c1ccc(F)cc1)c1nc(N)c(C(=O)c2ccc(C(=O)NCc3ccccc3)cc2)s1` (racemic) [Example 262, rac-4-[4-amino-2-(N-(2-amino-1-methyl-2-oxo-ethyl)-4-fluoro-anilino)thiazole-5-carbonyl]-N-benzyl-benzamide], the 50% inhibitory concentration (IC50) was 6 nM. For the molecule `CC(C(N)=O)N(c1ccc(F)cc1)c1nc(N)c(C(=O)c2ccc(OCc3ccccc3)cc2)s1` (racemic) [Example 170, rac-2-(N-[4-amino-5-(4-benzyloxybenzoyl)thiazol-2-yl]-4-fluoro-anilino)propanamide], the IC50 stood at 7 nM. Regarding `CC(C(N)=O)N(c1ccc(Cl)c(F)c1)c1nc(N)c(C(=O)c2ccc(OC(F)F)cc2)s1` (single isomer, unassigned) [Example 48.2, 2-(N-[4-amino-5-[4-(difluoromethoxy)benzoyl]thiazol-2-yl]-4-chloro-3-fluoro-anilino)propanamide], the IC50 was 120 nM. In the case of `CC(C(N)=O)N(c1ccc(F)cc1)c1nc(N)c(C(=O)c2ccc(NC(=O)OCc3ccccc3)cc2)s1` (single isomer, unassigned) [Example 169.1, Benzyl N-[4-[4-amino-2-(N-(2-amino-1-methyl-2-oxo-ethyl)-4-fluoro-anilino)thiazole-5-carbonyl]phenyl]carbamate] it was 3 nM; in that of `CC(C(N)=O)N(c1ccc(F)cc1)c1nc(N)c(C(=O)c2ccc(OCC(=O)N3CCc4ccccc4C3)cc2)s1` (racemic) [Example 133, rac-2-(N-[4-amino-5-[4-[2-(3,4-dihydro-1H-isoquinolin-2-yl)-2-oxo-ethoxy]benzoyl]thiazol-2-yl]-4-fluoro-anilino)propanamide], 42.5 nM; in that of `CC(C(N)=O)N(c1ccc2c(c1)OCO2)c1nc(N)c(C(=O)c2ccccc2)s1` (racemic) [Example 196, rac-2-[(4-amino-5-benzoyl-thiazol-2-yl)-(1,3-benzodioxol-5-yl)amino]propanamide], 128 nM.

Consider `COc1ccc(N(c2nc(N)c(C(=O)c3ccc(OC(F)F)cc3)s2)C(C)C(N)=O)cc1` (racemic) [Example 174, rac-2-(N-[4-amino-5-[4-(difluoromethoxy)benzoyl]thiazol-2-yl]-4-methoxy-anilino)propanamide], for which the 50% inhibitory concentration (IC50) amounted to 51 nM. In the case of `CC(C(N)=O)N(c1ccc(F)cc1)c1nc(N)c(C(=O)c2ccc(OCC(=O)N3CCN(C)CC3)cc2)s1` (racemic) [Example 86, rac-2-(N-[4-amino-5-[4-[2-(4-methylpiperazin-1-yl)-2-oxo-ethoxy]benzoyl]thiazol-2-yl]-4-fluoro-anilino)propanamide], the IC50 was 759 nM. Take `CC(C(N)=O)N(c1ccc(F)cc1)c1nc(N)c(C(=O)c2ccc(C(F)(F)F)cc2)s1` (racemic) [Example 42, rac-2-(N-[4-amino-5-[4-(trifluoromethyl)benzoyl]thiazol-2-yl]-4-fluoro-anilino)propanamide]: the 50% inhibitory concentration (IC50) came to 11.3 nM.

With `CC(C(N)=O)N(c1ccc(F)cc1)c1nc(N)c(C(=O)c2ccc(OCC(=O)NCc3ccccc3F)cc2)s1` (racemic) [Example 96, rac-2-(N-[4-amino-5-[4-[2-[(2-fluorophenyl)methylamino]-2-oxo-ethoxy]benzoyl]thiazol-2-yl]-4-fluoro-anilino)propanamide], the 50% inhibitory concentration (IC50) amounted to 31.4 nM.

For the molecule `CC(C(N)=O)N(c1cccnc1)c1nc(N)c(C(=O)c2ccccc2)s1` (single isomer, unassigned) [Example 79.1, 2-[(4-amino-5-benzoyl-thiazol-2-yl)-(3-pyridyl)amino]propanamide], the IC50 is 1660 nM. In the case of `CC(C(N)=O)N(c1ccc(F)cc1)c1nc(N)c(C(=O)c2ccc(OCC(=O)NC3CCCCC3)cc2)s1` (racemic) [Example 106, rac-2-(N-(4-amino-5-[4-[2-(cyclohexylamino)-2-oxo-ethoxy]benzoyl]thiazol-2-yl]-4-fluoro-anilino)propanamide] it was 33.3 nM. Consider `CC1CCCN(C(=O)COc2ccc(C(=O)c3sc(N(c4ccc(F)cc4)C(C)C(N)=O)nc3N)cc2)C1` (racemic) [Example 128, 2-(N-[4-amino-5-[4-[2-(3-methyl-1-piperidyl)-2-oxo-ethoxy]benzoyl]thiazol-2-yl]-4-fluoro-anilino)propanamide], for which the IC50 stood at 72.2 nM.
